In one test the test system is HEK-293T. The experiment in a line: Antiproliferative activity against human 293T cells after 48 hrs by MTT assay. Format: cell-based.
Another test has as its system SMMC-7721. The experiment in a line: Antiproliferative activity against human SMMC7721 cells after 48 hrs by MTT assay. In kind it is functional, cell-based. Conditions: SMMC-7721, 48 h.
In another test the test system is HeLa. The experiment in a line: cells. As to conditions: Homo sapiens, 48 h.
For a further test, the system named is HT-29. The experiment in a line: cells. As to conditions: Homo sapiens, HT-29, 48 h.
The subject of a further test is A549. The experiment in a line: cells. As to conditions: Homo sapiens, A549, 48 h.

Structures are written as SMILES.

Description for HT-29: Antiproliferative activity against human HT-29 cells after 48 hrs by MTT assay

A word on the IC50: it is the concentration at which inhibition is half-maximal. Read a high IC50 as a need for much substance. `Cc1ccc(-c2cc(C(F)(F)F)nn2-c2ccc(S(N)(=O)=O)cc2)cc1` [CELECOXIB]: the IC50 was 112 µM in the test with HEK-293T; 5.96 µM with SMMC-7721; 11.1 µM in the test with HeLa; 8.47 µM in the test on HT-29; 7.68 µM in the test on A549.

As for `O=c1ccc2ccc(O)cc2o1` [UMBELLIFERONE], the IC50 amounted to 190 µM in the test on HEK-293T; 19.9 µM with SMMC-7721; 42.4 µM with HeLa; 22.7 µM with HT-29; 21.1 µM in the test with A549.

(Values after ChEMBL document CHEMBL4052777, “Synthesis of novel hybrids of pyrazole and coumarin as dual inhibitors of COX-2 and 5-LOX” (Bioorg Med Chem Lett, 2017).)
